# Measured values reported in ChEMBL document CHEMBL5365434, “Cyclic Diguanylate G-Quadruplex Inducer-Nitric Oxide Donor Conjugate as a Bifunctional Antibiofilm Agent and Antibacterial Synergist against Pseudomonas aeruginosa with a Hyperbiofilm Phenotype” (J Med Chem, 2023).
# Activity calls are given as the source filed them. The calls are words filed in the database; no cut-off is given here.
# Experiments:
# Pseudomonas aeruginosa [1] = assay: Antibiofilm activity against Pseudomonas aeruginosa PAO1 delta wspF at 1.25 uM measured after 24 hrs by crystal violet staining based analysis; type: functional, organism-based
# Quadruplex DNA = assay: Induction of c-diGMP G quadruplex formation at 30 uM incubated for 12 hrs by circular dichroism analysis; type: nucleic-acid assay
# Pseudomonas aeruginosa [2] = assay: Antibacterial activity against Pseudomonas aeruginosa PAO1 delta wspF assessed as eradication of preformed bacterial biofilm at 0.625 to 40 uM incubated for 15 hrs by crystal violet staining based analysis; type: functional, organism-based; conditions: dose 0.625-40 µM
# Pseudomonas aeruginosa [3] = assay: Synergistic antibacterial activity against Pseudomonas aeruginosa PAO1 delta wspF assessed as inhibition of reproduction of biofilm bacteria at upto 40 uM incubated for 15 hrs in presence of tobramycin by checker board assay; type: functional, organism-based
# Pseudomonas aeruginosa [4] = assay: Antibacterial activity against Pseudomonas aeruginosa PAO1 delta wspF assessed as inhibition of biofilm formation at 1.25 uM incubated for 24 hrs relative to control; type: functional; design: scale not given: the % may be the effect or the level left
# Pseudomonas aeruginosa [5] = assay: Antibacterial activity against Pseudomonas aeruginosa PAO1 delta wspF assessed as reduction in c-di-GMP induced EMP production at 1.25 uM incubated for 3 hrs by Congo red dye based spectrophotometric assay relative to control; type: functional; design: scale not given: the % may be the effect or the level left
# Pseudomonas aeruginosa [6] = assay: Anti-motility activity against Pseudomonas aeruginosa PAO1 delta wspF assessed as promotion of swarming motility measured after 24 hrs; type: functional, organism-based; conditions: dose 0.156-1.25 µM
# Vero = assay: Cytotoxicity against African green monkey Vero cells at 0.156 to 20 uM measured after 24 hrs by MTT assay relative to control; type: toxicity, cell-based; conditions: chlorocebus sabaeus, dose 0.156-20 µM
# Pseudomonas aeruginosa [7] = assay: Antibacterial activity against Pseudomonas aeruginosa PAO1 delta wspF assessed as reduction in c-di-GMP induced EMP production at 0.156 to 1.25 uM incubated for 3 hrs by Congo red dye based spectrophotometric assay; type: functional, organism-based; conditions: dose 0.156-1.25 µM
# DNA = assay: Induction of pBR322 DNA (unknown origin) damage assessed as DNA embedding effect by measuring tail formation incubated for 10 mins by electrophoresis assay; type: toxicity
# Caenorhabditis elegans [8] = assay: Synergistic anti-infective activity against Caenorhabditis elegans assessed as survival rate at 0.16 to 20 uM incubated for 24 hrs in presence of tobramycin relative to control; type: functional; conditions: dose 0.16-20 µM
# Pseudomonas aeruginosa [9] = assay: Antibacterial activity against Pseudomonas aeruginosa PAO1 delta wspF assessed as eradication of mature biofilm at 0.16 to 40 uM incubated for 15 hrs by crystal violet staining based analysis relative to control; type: functional; conditions: dose 0.16-40 µM
# Pseudomonas aeruginosa [10] = assay: Synergistic antibacterial activity Pseudomonas aeruginosa PAO1 delta wspF assessed as fold reduction in survival of biofilm bacteria at 1.25 to 10 uM incubated for 15 hrs in presence of tobramycin by checker board assay; type: functional; conditions: dose 1.25-10 µM
# [11] = Cytotoxicity against African green monkey Vero cells assessed as survival rate at 0.156 to 20 uM measured after 48 hrs by MTT assay relative to control; type: toxicity, cell-based; conditions: chlorocebus sabaeus, dose 0.156-20 µM, read-out: Survival
# Pseudomonas aeruginosa [12] = assay: Synergistic antibacterial activity against Pseudomonas aeruginosa PAO1 delta wspF assessed as inhibition of reproduction of biofilm bacteria at high concentration incubated for 15 hrs in presence of tobramycin by checker board assay; type: functional, organism-based
# Pseudomonas aeruginosa [13] = assay: Antibiofilm activity against Pseudomonas aeruginosa PAO1 delta wspF assessed as increase in number of planktonic bacteria at 1.25 to 10 uM incubated for 2 hrs; type: functional, organism-based; conditions: dose 1.25-10 µM
# Pseudomonas aeruginosa [14] = assay: Antibacterial activity against Pseudomonas aeruginosa PAO1 delta wspF assessed as eradication of preformed bacterial biofilm at 1.25 uM incubated for 15 hrs by crystal violet staining based analysis relative to control; type: functional
# Caenorhabditis elegans [15] = assay: Synergistic anti-infective activity against Caenorhabditis elegans assessed as survival rate at 10 uM incubated for 24 hrs in presence of tobramycin relative to control; type: functional
# Caenorhabditis elegans [16] = assay: Anti-infective activity against Caenorhabditis elegans assessed as survival rate at MBC level incubated for 24 hrs relative to control; type: functional
# Pseudomonas aeruginosa [17] = assay: Synergistic antibacterial activity against Pseudomonas aeruginosa PAO1 delta wspF assessed as inhibition of reproduction of biofilm bacteria at 2X MBC in presence of streptozocin by checker board assay; type: functional, organism-based
structure (smiles),measurement,setting,value
CNc1ccc(/C=C/c2sc3ccccc3[n+]2C)cc1,Activity,Pseudomonas aeruginosa [1],Active
same,Activity,Quadruplex DNA,Active
CCCNc1ccc(/C=C/c2ccc3ccccc3[n+]2C)cc1,Activity,Pseudomonas aeruginosa [1],Active
same,Activity,Quadruplex DNA,Active
CNc1ccc(/C=C/c2sc3ccccc3[n+]2C)cc1OC.[I-],Activity,Pseudomonas aeruginosa [2],inactive
same,Activity,Pseudomonas aeruginosa [1],Active
same,Activity,Pseudomonas aeruginosa [3],inactive
same,Activity,Pseudomonas aeruginosa [4],60%
same,Activity,Pseudomonas aeruginosa [5],<50%
same,Activity,Pseudomonas aeruginosa [6],Dose-Dependent Effect
same,Activity,Vero,> 98%
same,Activity,Pseudomonas aeruginosa [7],Active
same,Activity,DNA,Not Active
same,Activity,Quadruplex DNA,Active
CN(N=O)C(=O)N[C@@H](C=O)[C@@H](O)[C@H](O)[C@H](O)CO [STREPTOZOCIN],Activity,Caenorhabditis elegans [8],25%
same,Activity,Pseudomonas aeruginosa [9],30%
COc1cc(/C=C/c2sc3ccccc3[n+]2C)ccc1N(C)N=O.[I-],fold change (FC),Pseudomonas aeruginosa [10],1000
same,"viability at 48 h, up to 20 µM",[11],80%
same,Activity,Pseudomonas aeruginosa [12],Active
same,Activity,Pseudomonas aeruginosa [4],80%
same,Activity,Pseudomonas aeruginosa [13],Active
same,Activity,Pseudomonas aeruginosa [14],40%
same,Activity,Caenorhabditis elegans [15],60%
CCNc1ccc(/C=C/c2ccc3ccccc3[n+]2C)cc1,Activity,Pseudomonas aeruginosa [1],Active
same,Activity,Quadruplex DNA,Active
CC(C)Nc1ccc(/C=C/c2sc3ccccc3[n+]2C)cc1,Activity,Pseudomonas aeruginosa [1],Active
same,Activity,Quadruplex DNA,Active
CCCNc1ccc(/C=C/c2sc3ccccc3[n+]2C)cc1,Activity,Pseudomonas aeruginosa [1],Active
same,Activity,Quadruplex DNA,Active
CNc1ccc(/C=C/c2ccc3ccccc3[n+]2C)cc1,Activity,Pseudomonas aeruginosa [1],Active
same,Activity,Quadruplex DNA,Active
CCNc1ccc(/C=C/c2sc3ccccc3[n+]2C)cc1,Activity,Pseudomonas aeruginosa [1],Active
same,Activity,Quadruplex DNA,Active
CN1/C(=C/c2cc[n+](C)c3ccccc23)Sc2ccccc21.Cc1ccc(S(=O)(=O)[O-])cc1,Activity,Caenorhabditis elegans [16],20%
same,Activity,Pseudomonas aeruginosa [17],Active
same,Activity,DNA,Active
